Columns and labels:
Assay type in all cases: in vivo
Lolium multiflorum = experiment: Indoor herbicide activity determination, Seed Treatment; pre-emergence (soil spray); settings: Dosage 240 g a.i./ha
Procedure, shortened: (§1)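 Herbicide was applied to soil before weed emergence, 24 h after sowing, by tower spraying. Plants grew at constant temperature with illumination, and fresh weight compared with untreated pots gave % inhibition after 21 days.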

Leptochloa chinensis = experiment: as above; settings: Dosage 240 g a.i./ha
Procedure, shortened: as §1

Alopecurus japonicus = experiment: as above; settings: Dosage 240 g a.i./ha
Procedure, shortened: as §1

Eleusine indica = experiment: as above; settings: Dosage 240 g a.i./ha
Procedure, shortened: as §1

Alopecurus myosuroides = experiment: as above; settings: Dosage 240 g a.i./ha
Procedure, shortened: as §1

Digitaria sanguinalis = experiment: Indoor herbicide activity determination, post-emergence (stem and leaf spray at 2-4 leaf stage); settings: 504 h, 60 g a.i./ha, determined 21 days later, read-out: Inhibition rate of fresh weight, Digitaria sanguinalis
Source text: (§2) The testing method for herbicide activity of the compound of the present invention was as follows:
(§3) Post-emergence: an appropriate quantity of seeds of gramineous weeds (Echinochloa crusgalli, Eleusine indica, Digitaria sanguinalis, Alopecurus japonicus, Beckmannia syzigachne, Leptochloa chinensis, Polypogon fugax, Alopecurus aequalis, Lolium multiflorum, Poa annua, Aegilops tauschii, Avena fatua, Alopecurus myosuroides, Alopecurus japonicus and Alopecurus aequalis), broad-leaved weeds (Eclipta prostrata, Amaranthus retroflexus, Rorippa indica, Malachium aquaticum, Veronica polita, Conyza canadensis, Sesbania cannabina, Sagittariatrifolia and Schoenoplectiella juncoides), and Cyperus iria were sown in plastic pots having a diameter of 7 cm and holes at the bottom and filled with nutrient soil (sandy soil, pH 6.1, organic matter 1%) respectively, the seeds were covered with an appropriate amount of soil after being sown, then the soil was wetted with water from the bottom, the seeds were cultured in a constant-temperature illuminated culture room until a 2-4 leaf stage, and stems and leaves underwent spray treatment. After the treatment, the test materials were placed in a laboratory and cultured in the constant-temperature illuminated culture room after the liquid was naturally dry in the shade, and results were determined 21 days later. Inhibition rate of fresh weight % = (1−(fresh weight of treated plants)/(fresh weight of control plants)) × 100% [formula]

Eclipta prostrata = experiment: as above; settings: 504 h, 60 g a.i./ha, determined 21 days later, read-out: Inhibition rate of fresh weight, Eclipta prostrata
Source text: as §2, §3

Cyperus iria = experiment: as above; settings: 504 h, 60 g a.i./ha, determined 21 days later, read-out: Inhibition rate of fresh weight, Cyperus iria
Source text: as §2, §3

SMILES: COC(=O)[C@H]1C[C@@H](NC(=O)C2(C)CC(c3cc(Cl)cc(Cl)c3)=NO2)C1 (mixture of isomers) [I-139]
- Herbicidal activities, Lolium multiflorum (inhibition rate class) (Lolium multiflorum): A (A indicates that the inhibition rate was greater than or equal to 80% to 100%)
- Herbicidal activities, Leptochloa chinensis (inhibition rate class) (Leptochloa chinensis): A (A indicates that the inhibition rate was greater than or equal to 80% to 100%)
- Herbicidal activities, Alopecurus japonicus (inhibition rate class) (Alopecurus japonicus): A (A indicates that the inhibition rate was greater than or equal to 80% to 100%)
- Herbicidal activities, Eleusine indica (inhibition rate class) (Eleusine indica): A (A indicates that the inhibition rate was greater than or equal to 80% to 100%)
- Herbicidal activities, Alopecurus myosuroides (inhibition rate class) (Alopecurus myosuroides): A (A indicates that the inhibition rate was greater than or equal to 80% to 100%)
- inhibition at 60 g/ha (Digitaria sanguinalis): 80 to 100%
- inhibition at 60 g/ha (Eclipta prostrata): 40 to 60%
- inhibition at 60 g/ha (Cyperus iria): 80 to 100%

SMILES: CC1(C(=O)N[C@H]2C[C@@H](C(=O)O)C2)CC(c2cc(F)cc(OC(F)(F)F)c2)=NO1 (mixture of isomers) [I-157]
- Herbicidal activities, Lolium multiflorum (inhibition rate class) (Lolium multiflorum): A (A indicates that the inhibition rate was greater than or equal to 80% to 100%)
- Herbicidal activities, Leptochloa chinensis (inhibition rate class) (Leptochloa chinensis): A (A indicates that the inhibition rate was greater than or equal to 80% to 100%)
- Herbicidal activities, Alopecurus japonicus (inhibition rate class) (Alopecurus japonicus): A (A indicates that the inhibition rate was greater than or equal to 80% to 100%)
- Herbicidal activities, Eleusine indica (inhibition rate class) (Eleusine indica): A (A indicates that the inhibition rate was greater than or equal to 80% to 100%)
- Herbicidal activities, Alopecurus myosuroides (inhibition rate class) (Alopecurus myosuroides): A (A indicates that the inhibition rate was greater than or equal to 80% to 100%)
- inhibition at 60 g/ha (Digitaria sanguinalis): 80 to 100%
- inhibition at 60 g/ha (Eclipta prostrata): 60 to 80%
- inhibition at 60 g/ha (Cyperus iria): 60 to 80%

SMILES: COC(=O)[C@H]1C[C@@H](NC(=O)C2(C)CC(c3cc(F)cc(OC(F)(F)F)c3)=NO2)C1 (mixture of isomers) [I-159]
- Herbicidal activities, Lolium multiflorum (inhibition rate class) (Lolium multiflorum): A (A indicates that the inhibition rate was greater than or equal to 80% to 100%)
- Herbicidal activities, Leptochloa chinensis (inhibition rate class) (Leptochloa chinensis): A (A indicates that the inhibition rate was greater than or equal to 80% to 100%)
- Herbicidal activities, Alopecurus japonicus (inhibition rate class) (Alopecurus japonicus): A (A indicates that the inhibition rate was greater than or equal to 80% to 100%)
- Herbicidal activities, Eleusine indica (inhibition rate class) (Eleusine indica): A (A indicates that the inhibition rate was greater than or equal to 80% to 100%)
- Herbicidal activities, Alopecurus myosuroides (inhibition rate class) (Alopecurus myosuroides): A (A indicates that the inhibition rate was greater than or equal to 80% to 100%)
- inhibition at 60 g/ha (Digitaria sanguinalis): 80 to 100%
- inhibition at 60 g/ha (Eclipta prostrata): 60 to 80%
- inhibition at 60 g/ha (Cyperus iria): 60 to 80%

SMILES: O=C(N[C@H]1C[C@@H](C(=O)O)C1)C1(C(F)(F)F)CC(c2cc(F)cc(Cl)c2)=NO1 (mixture of isomers) [I-223]
- Herbicidal activities, Lolium multiflorum (inhibition rate class) (Lolium multiflorum): A (A indicates that the inhibition rate was greater than or equal to 80% to 100%)
- Herbicidal activities, Leptochloa chinensis (inhibition rate class) (Leptochloa chinensis): A (A indicates that the inhibition rate was greater than or equal to 80% to 100%)
- Herbicidal activities, Alopecurus japonicus (inhibition rate class) (Alopecurus japonicus): A (A indicates that the inhibition rate was greater than or equal to 80% to 100%)
- Herbicidal activities, Eleusine indica (inhibition rate class) (Eleusine indica): A (A indicates that the inhibition rate was greater than or equal to 80% to 100%)
- Herbicidal activities, Alopecurus myosuroides (inhibition rate class) (Alopecurus myosuroides): A (A indicates that the inhibition rate was greater than or equal to 80% to 100%)
- inhibition at 60 g/ha (Digitaria sanguinalis): 80 to 100%
- inhibition at 60 g/ha (Eclipta prostrata): 60 to 80%
- inhibition at 60 g/ha (Cyperus iria): 80 to 100%

SMILES: COC(=O)[C@H]1C[C@@H](NC(=O)C2(C(F)(F)F)CC(c3cc(F)cc(Cl)c3)=NO2)C1 (mixture of isomers) [I-225]
- Herbicidal activities, Lolium multiflorum (inhibition rate class) (Lolium multiflorum): A (A indicates that the inhibition rate was greater than or equal to 80% to 100%)
- Herbicidal activities, Leptochloa chinensis (inhibition rate class) (Leptochloa chinensis): A (A indicates that the inhibition rate was greater than or equal to 80% to 100%)
- Herbicidal activities, Alopecurus japonicus (inhibition rate class) (Alopecurus japonicus): A (A indicates that the inhibition rate was greater than or equal to 80% to 100%)
- Herbicidal activities, Eleusine indica (inhibition rate class) (Eleusine indica): A (A indicates that the inhibition rate was greater than or equal to 80% to 100%)
- Herbicidal activities, Alopecurus myosuroides (inhibition rate class) (Alopecurus myosuroides): A (A indicates that the inhibition rate was greater than or equal to 80% to 100%)
- inhibition at 60 g/ha (Digitaria sanguinalis): 80 to 100%
- inhibition at 60 g/ha (Eclipta prostrata): 60 to 80%
- inhibition at 60 g/ha (Cyperus iria): 80 to 100%

SMILES: O=C(N[C@H]1C[C@@H](C(=O)O)C1)C1(C(F)(F)F)CC(c2cc(Cl)cc(Cl)c2)=NO1 (relative stereo) [I-229]
- Herbicidal activities, Lolium multiflorum (inhibition rate class) (Lolium multiflorum): A (A indicates that the inhibition rate was greater than or equal to 80% to 100%)
- Herbicidal activities, Leptochloa chinensis (inhibition rate class) (Leptochloa chinensis): A (A indicates that the inhibition rate was greater than or equal to 80% to 100%)
- Herbicidal activities, Alopecurus japonicus (inhibition rate class) (Alopecurus japonicus): A (A indicates that the inhibition rate was greater than or equal to 80% to 100%)
- Herbicidal activities, Eleusine indica (inhibition rate class) (Eleusine indica): A (A indicates that the inhibition rate was greater than or equal to 80% to 100%)
- Herbicidal activities, Alopecurus myosuroides (inhibition rate class) (Alopecurus myosuroides): A (A indicates that the inhibition rate was greater than or equal to 80% to 100%)
- inhibition at 60 g/ha (Digitaria sanguinalis): 80 to 100%
- inhibition at 60 g/ha (Eclipta prostrata): 60 to 80%
- inhibition at 60 g/ha (Cyperus iria): 80 to 100%

SMILES: COC(=O)[C@H]1C[C@@H](NC(=O)C2(C(F)(F)F)CC(c3cc(Cl)cc(Cl)c3)=NO2)C1 (relative stereo) [I-231]
- Herbicidal activities, Lolium multiflorum (inhibition rate class) (Lolium multiflorum): A (A indicates that the inhibition rate was greater than or equal to 80% to 100%)
- Herbicidal activities, Leptochloa chinensis (inhibition rate class) (Leptochloa chinensis): A (A indicates that the inhibition rate was greater than or equal to 80% to 100%)
- Herbicidal activities, Alopecurus japonicus (inhibition rate class) (Alopecurus japonicus): A (A indicates that the inhibition rate was greater than or equal to 80% to 100%)
- Herbicidal activities, Eleusine indica (inhibition rate class) (Eleusine indica): A (A indicates that the inhibition rate was greater than or equal to 80% to 100%)
- Herbicidal activities, Alopecurus myosuroides (inhibition rate class) (Alopecurus myosuroides): A (A indicates that the inhibition rate was greater than or equal to 80% to 100%)
- inhibition at 60 g/ha (Digitaria sanguinalis): 80 to 100%
- inhibition at 60 g/ha (Eclipta prostrata): 60 to 80%
- inhibition at 60 g/ha (Cyperus iria): 80 to 100%

SMILES: O=C(N[C@H]1C[C@@H](C(=O)O)C1)C1(C(F)(F)F)CC(c2cc(F)cc(C(F)(F)F)c2)=NO1 (relative stereo) [I-241]
- Herbicidal activities, Lolium multiflorum (inhibition rate class) (Lolium multiflorum): A (A indicates that the inhibition rate was greater than or equal to 80% to 100%)
- Herbicidal activities, Leptochloa chinensis (inhibition rate class) (Leptochloa chinensis): A (A indicates that the inhibition rate was greater than or equal to 80% to 100%)
- Herbicidal activities, Alopecurus japonicus (inhibition rate class) (Alopecurus japonicus): A (A indicates that the inhibition rate was greater than or equal to 80% to 100%)
- Herbicidal activities, Eleusine indica (inhibition rate class) (Eleusine indica): A (A indicates that the inhibition rate was greater than or equal to 80% to 100%)
- Herbicidal activities, Alopecurus myosuroides (inhibition rate class) (Alopecurus myosuroides): A (A indicates that the inhibition rate was greater than or equal to 80% to 100%)
- inhibition at 60 g/ha (Digitaria sanguinalis): 80 to 100%
- inhibition at 60 g/ha (Eclipta prostrata): 60 to 80%
- inhibition at 60 g/ha (Cyperus iria): 80 to 100%

From EP4722201A1, “3-PHENYLISOXAZOLINE-5-CARBOXAMIDE COMPOUND, AND PREPARATION METHOD THEREFOR, HERBICIDAL COMPOSITION THEREOF AND USE THEREOF” (Jiangsu Flag Chemical Industry Co., Ltd, priority 2023, dated 2024)
